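Each compound was tested at five concentrations against cells in 96-well plates for 48 hours. The concentration for 50% growth inhibition is given as GI50.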 Activity calls are given as the source filed them. No stated cut-off is given here; in the data, active = GI50 up to about 1.1 µM and inactive = higher. Where a SMILES comes first, the peptide text is derived from it.
Columns and labels:
Assay in all cases: inhibition of tumour cell growth, NCI panel, 48 h
M14 = system: M14
HOP-92 = system: HOP-92
SNB-75 = system: SNB-75
IGROV-1 = system: IGROV-1
SK-MEL-2 = system: SK-MEL-2
CCRF-CEM = system: CCRF-CEM
OVCAR-4 = system: OVCAR-4
OVCAR-5 = system: OVCAR-5
SF-295 = system: SF-295
RPMI-8226 = system: RPMI-8226
SR = system: SR
LOX IMVI = system: LOX IMVI
UACC-257 = system: UACC-257
SNB-19 = system: SNB-19
K562 = system: K562
NCI-H23 = system: NCI-H23
DU-145 = system: DU-145
U-251 = system: U-251
SK-OV-3 = system: SK-OV-3

Row | SMILES | GI50 (M14) | GI50 (HOP-92) | GI50 (SNB-75) | GI50 (IGROV-1) | GI50 (SK-MEL-2) | GI50 (CCRF-CEM) | GI50 (OVCAR-4) | GI50 (OVCAR-5) | GI50 (SF-295) | GI50 (RPMI-8226) | GI50 (SR) | GI50 (LOX IMVI) | GI50 (UACC-257) | GI50 (SNB-19) | GI50 (K562) | GI50 (NCI-H23) | GI50 (DU-145) | GI50 (U-251) | GI50 (SK-OV-3)
1 | CCN(CC)CCO/N=C1\CC[C@H]2[C@@H]3CCc4cc(OC)ccc4[C@H]3CC[C@]12C | 0.467 µM (active) | 2.45 µM (inactive) | 2.44 µM (inactive) | 3.26 µM (inactive) | 2.3 µM (inactive) | 1.22 µM (inactive) | 9.08 µM (inactive) | 3.17 µM (inactive) | 1.83 µM (inactive) | 1.67 µM (inactive) | 1.49 µM (inactive) | 0.789 µM (active) | 0.859 µM (active) | 8.38 µM (inactive) | 0.685 µM (active) | 5.09 µM (inactive) | 4.76 µM (inactive) | 2.59 µM (inactive) | 
2 | CCC(C)C(NC(=O)C1CCCN1C(=O)C(CC(C)C)NC(=O)C(CC(C)C)NC(=O)C(N)CC(C)C)C(=O)NC(C(=O)NCC(=O)NC(CC(N)=O)C(=O)NC(CC(C)C)C(=O)NC(CC(C)C)C(=O)NC(CC(C)C)C(N)=O)C(C)C (centres undefined) (H-LLLPIVGNLLL-NH2; configuration not given here) | > 50 µM (inactive) | > 50 µM (inactive) |  | > 50 µM (inactive) | > 50 µM (inactive) | > 50 µM (inactive) | > 50 µM (inactive) | > 50 µM (inactive) | > 50 µM (inactive) | > 50 µM (inactive) | > 50 µM (inactive) | > 50 µM (inactive) | > 50 µM (inactive) | > 50 µM (inactive) |  | > 50 µM (inactive) | > 50 µM (inactive) | > 50 µM (inactive) | > 50 µM (inactive)
3 | Cc1nc(OCc2ccccc2)c2ncn(CCO)c2n1 | > 100 µM (inactive) | 51.8 µM (inactive) |  | > 100 µM (inactive) | > 100 µM (inactive) | > 100 µM (inactive) | > 100 µM (inactive) | > 100 µM (inactive) | > 100 µM (inactive) | > 100 µM (inactive) | > 100 µM (inactive) | > 100 µM (inactive) | > 100 µM (inactive) | > 100 µM (inactive) |  | > 100 µM (inactive) | > 100 µM (inactive) | > 100 µM (inactive) | > 100 µM (inactive)
4 | COc1ccc(Nc2nc3ccccc3nc2C(=O)O)cc1 | > 100 µM (inactive) | > 100 µM (inactive) | 59.7 µM (inactive) | 87.9 µM (inactive) | > 100 µM (inactive) | 44 µM (inactive) | > 100 µM (inactive) | > 100 µM (inactive) | 61.7 µM (inactive) |  | 48.6 µM (inactive) | 60.1 µM (inactive) | > 100 µM (inactive) | > 100 µM (inactive) | 63.4 µM (inactive) | 66.7 µM (inactive) | 76.7 µM (inactive) | 64.3 µM (inactive) | 9.04 µM (inactive)
5 | C=CC(C)(C)c1cc([C@@H]2COc3cc(O)ccc3C2=O)c(O)c(O)c1OC | 22.3 µM (inactive) | 18.8 µM (inactive) | 27.4 µM (inactive) |  | 22.5 µM (inactive) | 41.7 µM (inactive) | 16.9 µM (inactive) | 31.4 µM (inactive) | 39.4 µM (inactive) |  | 22.3 µM (inactive) | 16.2 µM (inactive) | 61.7 µM (inactive) | 23.5 µM (inactive) | 34.8 µM (inactive) | 17.1 µM (inactive) | 20.7 µM (inactive) | 20.2 µM (inactive) | 29.1 µM (inactive)
6 | COc1cc(/C=C\C(=O)O)ccc1OCc1ccccc1 | > 100 µM (inactive) | 20.3 µM (inactive) |  | > 100 µM (inactive) | > 100 µM (inactive) | > 100 µM (inactive) |  | > 100 µM (inactive) | > 100 µM (inactive) | > 100 µM (inactive) | > 100 µM (inactive) | > 100 µM (inactive) | > 100 µM (inactive) | > 100 µM (inactive) | > 100 µM (inactive) | > 100 µM (inactive) | > 100 µM (inactive) | > 100 µM (inactive) | > 100 µM (inactive)
7 | CCc1nc(Cl)nc(Cl)c1Cl | 1.28 µM (inactive) | 2.11 µM (inactive) | 5.53 µM (inactive) | 3.72 µM (inactive) |  | 0.177 µM (active) | 0.553 µM (active) | 0.7 µM (active) | 8.57 µM (inactive) | 0.0116 µM (active) | 0.416 µM (active) | 0.0826 µM (active) | 0.547 µM (active) | 3.59 µM (inactive) | 0.107 µM (active) | 1.08 µM (active) | 9.06 µM (inactive) | 1.39 µM (inactive) | 6.41 µM (inactive)
8 | CC(=O)OC1/C(=C/c2ccc([N+](=O)[O-])cc2)C[C@H]2[C@@H]3CC=C4C[C@@H](OC(C)=O)CC[C@]4(C)[C@H]3CC[C@]12C (some centres undefined) | > 100 µM (inactive) | 34.4 µM (inactive) |  | > 100 µM (inactive) | > 61.5 µM (inactive) | > 40.6 µM (inactive) | > 96.4 µM (inactive) | > 100 µM (inactive) | > 73.6 µM (inactive) | > 71.3 µM (inactive) | 5.13 µM (inactive) | > 100 µM (inactive) | > 100 µM (inactive) | > 72.4 µM (inactive) |  | > 100 µM (inactive) | > 100 µM (inactive) | 46 µM (inactive) | 41.4 µM (inactive)

Source: ChEMBL document CHEMBL1201862, “PubChem BioAssay data set” (2004)
